Data taken from patent US20260327211A1, “MODULATORS OF A POTASSIUM CHANNEL AND OF TRPV1 CHANNEL AND USES THEREOF” (Bsense Bio Therapeutics Ltd., priority 2023, published 2026).
In brackets after ≈: the same amount, converted by molar mass. Read-outs that look alike come from different tables or passages of the source.

Legend:
hERG = hERG (Homo sapiens, UniProt Q12809); test: hERG HCS, FLIPR potassium assay, CHO/hERG; assay type: cell-based; set-up: host or cells: CHO; settings: for hERG IC50 (inhibition in parentheses): at highest concentration shown
Chain of hERG (Q12809 whole entry): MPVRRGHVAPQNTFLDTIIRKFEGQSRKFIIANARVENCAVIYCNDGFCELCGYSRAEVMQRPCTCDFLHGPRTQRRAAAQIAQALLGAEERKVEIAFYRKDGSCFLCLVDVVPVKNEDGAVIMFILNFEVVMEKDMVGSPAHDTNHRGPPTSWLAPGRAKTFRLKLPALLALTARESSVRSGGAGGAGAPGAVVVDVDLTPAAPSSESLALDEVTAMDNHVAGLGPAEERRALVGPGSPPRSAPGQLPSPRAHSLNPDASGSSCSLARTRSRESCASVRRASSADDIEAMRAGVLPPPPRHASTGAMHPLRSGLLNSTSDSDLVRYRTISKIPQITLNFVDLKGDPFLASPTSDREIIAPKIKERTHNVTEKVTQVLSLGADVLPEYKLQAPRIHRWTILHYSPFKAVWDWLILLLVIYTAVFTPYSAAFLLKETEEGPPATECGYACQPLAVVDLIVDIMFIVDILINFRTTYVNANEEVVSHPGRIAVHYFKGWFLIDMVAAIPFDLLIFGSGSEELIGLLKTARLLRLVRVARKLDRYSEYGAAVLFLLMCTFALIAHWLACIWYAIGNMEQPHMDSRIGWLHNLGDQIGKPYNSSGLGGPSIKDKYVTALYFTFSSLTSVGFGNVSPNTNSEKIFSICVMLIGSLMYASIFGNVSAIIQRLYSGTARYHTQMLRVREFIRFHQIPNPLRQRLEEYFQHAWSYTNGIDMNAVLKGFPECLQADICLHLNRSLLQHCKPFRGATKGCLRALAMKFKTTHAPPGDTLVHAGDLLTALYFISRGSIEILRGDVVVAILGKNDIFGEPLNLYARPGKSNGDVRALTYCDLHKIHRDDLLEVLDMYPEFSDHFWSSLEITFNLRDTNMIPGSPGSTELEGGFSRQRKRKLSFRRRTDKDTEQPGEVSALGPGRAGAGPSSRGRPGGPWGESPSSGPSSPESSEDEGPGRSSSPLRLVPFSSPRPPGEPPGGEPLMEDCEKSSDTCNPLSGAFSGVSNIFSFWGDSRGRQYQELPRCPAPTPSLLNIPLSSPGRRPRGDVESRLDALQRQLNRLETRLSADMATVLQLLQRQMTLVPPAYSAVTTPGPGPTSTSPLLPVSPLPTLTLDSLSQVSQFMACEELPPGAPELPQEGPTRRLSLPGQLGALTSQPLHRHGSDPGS
Experimental: Cell culture: Chinese hamster ovary (CHO) cell-line cells with a constitutive expression of human hERG channels (B'SYS GmbH, Switzerland) were cultured in F-12 nutrient mixture (Biological Industries) supplemented with 10% fetal bovine serum (Biological Industries) and 1% penicillin-streptomycin (Biological Industries) in a humidified 5% CO2 incubator at 37° C. To maintain the hERG expression stability of the CHO cell line, antibiotics selection (G418 […] and Hygromycin 500) was applied.
FLIPR Potassium Assay Kit: The FLIPR Potassium Assay Kit (R8222 FLIPR Potassium Assay Explorer Kits, Molecular Devices) was used with CHO/hERG cell line, for screening compounds against the hERG ion-channel off-target, as detailed hereinabove.
According to optimization process, to achieve a uniform and consistent screening condition of molecules, the following protocol was established: Cells were seeded in 384-well, black-walled, clear-bottomed, at a density of 7,500 cells per well 24 hours before the assay conductance and incubated overnight in their normal growth medium. On the experiment day the medium was replaced with HBSS, HEPES, and the tested compound/vehicle (0.2% DMSO). Dye solution (prepared according to the manufacturer) was added to the wells and plates were incubated for 1.5 hour light-protected in room temperature. The Tecan Spark plate-reader injectors were primed with Tl+(1 mM Tl2SO4) or Tl++K+(1 mM Tl2SO4; 10 mM K2SO4) for channel activation and data correction. […]. To calculate IC50 values, the data was fitted to sigmoidal regression using Prism GraphPad.

[1] = Log D, 1-octanol/buffer shake flask; assay type: physicochemical; settings: pH 7.4
In short: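 Compound from a 10 mM DMSO stock was partitioned between mutually saturated 1-octanol and 0.1 M phosphate buffer by shaking for 1 h at room temperature, then centrifuged. Each phase was diluted and quantified by LC/MS/MS. Log D came from the ratio of dilution- and internal-standard-corrected peak areas.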

Kinetic solubility = assay type: physicochemical; settings: for solubility kinetic: hhbs buffer, aqueous buffer
Experimental: Solubility measurements were performed prior to each in vitro assay to ensure accurate dose response and reproducibility. Briefly, each compound was dissolved to 60 mM in DMSO and calibration curve was performed from 1.5-200 μM using absorbance spectra analysis and determination of λmax. Calibration curve served as the readout for all following assays. The 60 mM stock solution was used to make a 120 μM target concentration of 0.2% DMSO in the appropriate buffer of the in vitro related assay (i.e. HHBS buffer). Solubilized compounds were vortex for 10 minutes followed by centrifugation for 15 minutes in 5000 RPM and the supernatant was recovered for absorbance spectra analysis between 200-400 nm.

[2] = Human liver microsome metabolic stability; assay type: in vitro ADME; settings: for microsomal CLint at 1 µM: read-out: HLM Clint; for half-life at 1 µM: human, liver microsomes, read-out: HLM T1/2
In short: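 Compound at 1 μM was incubated at 37 °C with pooled liver microsomes at 0.5 mg/mL and an NADPH regenerating system (about 1.0 mM). Samples were taken from 0 to 60 min, quenched in cold acetonitrile and quantified by LC-MS/MS against an internal standard. CLint was scaled with species liver weights (rat 40 g/kg, human 20 g/kg).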

[3] = 1-octanol/phosphate buffer, read-out: LogD
[4] = Table 1, read-out: Kinetic Sol.
[5] = Tables 4 and 11, read-out: Kinetic Sol.

COC[C@@H](CO)NC(=O)Cc1cc(Sc2c(Cl)cc(F)cc2C(C)C)ccc1F [Compound 415]
IC50 (hERG; Table 1, read-out: hERG IC50): > 23 µM
hERG IC50 (inhibition in parentheses) (hERG; Table 1): 0%
logD [1, 3]: 4.25
solubility kinetic (Kinetic solubility; [4]): 26.7 µM (≈ 11.9 µg/mL)
microsomal CLint at 1 µM ([2]; human liver microsomes): 839 µL/min/mg

CC(C)c1cc(Cl)cc(Cl)c1C(=O)c1ccc(F)c(CC(=O)NCC(C)(C)O)c1 [Compound 417-4]
IC50 (hERG; Table 1, read-out: hERG IC50): > 35 µM
hERG IC50 (inhibition in parentheses) (hERG; Table 1): 0%
logD [1, 3]: 4.08
solubility kinetic (Kinetic solubility; [4]): 66 µM (≈ 29.1 µg/mL)
microsomal CLint at 1 µM ([2]; human liver microsomes): 91.8 µL/min/mg

Cc1cn(-c2ccc(F)c(CC(=O)NCC(C)(C)O)c2)c2c(Cl)cc(Cl)cc12 [Compound 421-6]
IC50 (hERG; Table 1, read-out: hERG IC50): > 2.5 µM
hERG IC50 (inhibition in parentheses) (hERG; Table 1): 0%
logD [1]: 5.47
Kinetic Sol. (Kinetic solubility; Table 1): 3.4
HLM Clint ([2]; human liver microsomes, 1 µM): 55.5 µL/min/mg

Cc1cn(-c2ccc(F)c(CC(=O)NCC(C)(C)O)c2)c2c(Cl)cc(Cl)cc12 [Compound 421]
IC50 (hERG; hERG IC50 HCS): > 2.5 µM
logD [1, 3]: 5.45
solubility kinetic (Kinetic solubility; [5]): 3400 µM (≈ 1440 µg/mL)
CLint scaled at 1 µM ([2]; human liver microsomes): 50 mL/min/kg
half-life at 1 µM ([2]; human liver microsomes): 25 min

O=C(Cc1cc(-n2cc(Cl)c3cc(Cl)cc(Cl)c32)ccc1F)NCCO [Compound 627]
IC50 (hERG; Table 1, read-out: hERG IC50): > 2.5 µM
hERG IC50 (inhibition in parentheses) (hERG; Table 1): 0%
IC50 (hERG; hERG IC50 HCS): > 2.65 µM

O=C(Cc1cncc(-n2cc(Cl)c3cc(Cl)cc(Cl)c32)c1)N[C@@H]1COC[C@H]1O [Compound 661]
hERG activity (hERG): no measurable activity at any concentration tested
IC50 (hERG; Table 1, read-out: hERG IC50): > 16.6 µM
hERG IC50 (inhibition in parentheses) (hERG; Table 1): 0%
IC50 (hERG; hERG IC50 HCS): 18.7 µM
logD [1, 3]: 3.55
solubility kinetic (Kinetic solubility; [4]): 40 µM (≈ 17.6 µg/mL)
solubility kinetic (Kinetic solubility; [5]): 37000 µM (≈ 16300 µg/mL)
CLint scaled at 1 µM ([2]; human liver microsomes): 64.8 mL/min/kg
HLM T1/2 ([2]; human liver microsomes, 1 µM): 19.3 min
microsomal CLint at 1 µM ([2]; human liver microsomes): 72 µL/min/mg
half-life at 1 µM ([2]; human liver microsomes): 19.2 min

O=C(Cc1nccc(-n2cc(Cl)c3cc(Cl)cc(Cl)c32)n1)NC1COCC1O (centres unmarked) [Compound 760]
hERG activity (hERG): lacks any effect on hERG and Kv7.3/4/5 activity below 10 μM
IC50 (hERG; human, cho/herg cells, Thallium ions (Tl+) fluorescence, read-out: hERG EC50): 33.4 µM
logD [1, 3]: 3.28
solubility kinetic (Kinetic solubility; [5]): 57000 µM (≈ 25200 µg/mL)
solubility kinetic (Kinetic solubility; read-out: Kinetic solubility): 57 µM (≈ 25.2 µg/mL)
HLM and/or Rat PK clearance rates compared to compound 661 [2]: improved HLM and/or Rat PK clearance rates compared to compound 661

O=C(Cc1ccnc(-n2cc(Cl)c3cc(Cl)cc(Cl)c32)n1)N[C@@H]1COC[C@H]1O [Compound 820]
logD [1, 3]: 3.82
HLM and/or Rat PK clearance rates compared to compound 661 [2]: improved HLM and/or Rat PK clearance rates compared to compound 661
half-life at 1 µM ([2]; human liver microsomes): 33.8 min

O=C(Cc1cc(-n2cc(C(F)(F)F)c3cc(Cl)cc(Cl)c32)ncn1)NCCO [Compound 843]
logD [1, 3]: 3.75
HLM and/or Rat PK clearance rates compared to compound 661 [2]: improved HLM and/or Rat PK clearance rates compared to compound 661
half-life at 1 µM ([2]; human liver microsomes): > 145 min

CC(C)c1cc(Cl)cc(Cl)c1Nc1ccc(F)c(CC(=O)NCC(C)(C)O)c1 [NH91, reference compound]
logD [1, 3]: 4.66
solubility kinetic (Kinetic solubility; Kinetic Sol., Tables 4 and 11): 20 µM (≈ 8.55 µg/mL)
solubility kinetic (Kinetic solubility; read-out: Kinetic solubility): 20 µM (≈ 8.55 µg/mL)
half-life at 1 µM ([2]; human liver microsomes): 7.4 min
